{
  "source": "patent US6818780B2",
  "about": "“P-hydroxyphenyl propionic acid derivatives as antiproliferative agents” (Consejo Superior de Investigaciones Cientificas, priority 2000, dated 2004)",
  "tested_on": "human peripheral blood mononuclear cells (CMSP)",
  "assay": "Test on lymphocyte proliferation: human peripheral blood mononuclear cells (3H-thymidine incorporation), with or without rhIL-2",
  "format": "cell-based",
  "details": "for Proliferation of human peripheral blood mononuclear cells, Con A 2 μg/ml (cpm ± DS) / Proliferation of human peripheral blood mononuclear cells, Medium (cpm ± DS) / Proliferation of human peripheral blood mononuclear cells, PHA 10 μg/ml (cpm ± DS) / Proliferation of human peripheral blood mononuclear cells, aCD3 5 μg/ml (cpm ± DS) / Proliferation of human peripheral blood mononuclear cells, aCD3 + Con A (cpm ± DS) / Proliferation of human peripheral blood mononuclear cells, aCD3 + PHA (cpm ± DS): no rhIL-2; for Proliferation of human peripheral blood mononuclear cells, Con A 2 μg/ml (cpm ± DS) / Proliferation of human peripheral blood mononuclear cells, Medium (cpm ± DS) / Proliferation of human peripheral blood mononuclear cells, PHA 10 μg/ml (cpm ± DS) / Proliferation of human peripheral blood mononuclear cells, aCD3 5 μg/ml (cpm ± DS) / Proliferation of human peripheral blood mononuclear cells, aCD3 + Con A (cpm ± DS) / Proliferation of human peripheral blood mononuclear cells, aCD3 + PHA (cpm ± DS) / Proliferation of human peripheral blood mononuclear cells in the presence of rhIL-2, Con A 2 μg/ml (cpm ± DS) / Proliferation of human peripheral blood mononuclear cells in the presence of rhIL-2, Medium (cpm ± DS) / Proliferation of human peripheral blood mononuclear cells in the presence of rhIL-2, PHA 10 μg/ml (cpm ± DS) / Proliferation of human peripheral blood mononuclear cells in the presence of rhIL-2, aCD3 5 μg/ml (cpm ± DS) / Proliferation of human peripheral blood mononuclear cells in the presence of rhIL-2, aCD3 + Con A (cpm ± DS) / Proliferation of human peripheral blood mononuclear cells in the presence of rhIL-2, aCD3 + PHA (cpm ± DS): 5 days; for Proliferation of human peripheral blood mononuclear cells in the presence of rhIL-2, Con A 2 μg/ml (cpm ± DS) / Proliferation of human peripheral blood mononuclear cells in the presence of rhIL-2, Medium (cpm ± DS) / Proliferation of human peripheral blood mononuclear cells in the presence of rhIL-2, PHA 10 μg/ml (cpm ± DS) / Proliferation of human peripheral blood mononuclear cells in the presence of rhIL-2, aCD3 5 μg/ml (cpm ± DS) / Proliferation of human peripheral blood mononuclear cells in the presence of rhIL-2, aCD3 + Con A (cpm ± DS) / Proliferation of human peripheral blood mononuclear cells in the presence of rhIL-2, aCD3 + PHA (cpm ± DS): rhIL-2 100 UI/ml",
  "from_the_text": "Tests on Human Peripheral Blood Mononuclear Cells Material and Methods:\nIn order to study more deeply the effects of lactone on cell proliferation, we checked whether the effects described in the above section on cells of murine origin were specific to the cell type and the species or whether, on the other hand, these effects were xeno-independent. For this, we purified human peripheral blood mononuclear cells from healthy controls and we proceeded to study the possible effects of inhibition on the proliferative activity of peripheral blood mononuclear cells (CMSP) from humans, induced by different mitogenic agents acting alone and/or in costimulation with other mitogens and in the presence or absence of recombinant human interleukin 2 (rhIL-2).\nMitogens: Phytohaemaglutinin M (PHA) (Difco Lab., Detroit, Mich., USA), Concanavalin A (Con A, 2 μg/ml, Sigma Chemical Co., Mich., USA), Immobilised anti-CD3 (OKT3, 5 μg/ml, Ortho-mune, Orthodiagnostic System) and rhIL-2 (100 IU/ml, Hoffman-La Roche, N.J., USA).\nAll the reagents included in these tests were diluted in RPMI 1640 culture medium (Whitaker Bioproducts, Walkersville, USA) supplemented with 10% of decomplemented foetal calf serum (Biochrom K G, Berlin), L-glutamin (2 mM, Biochrom K G), Hepes (25 mM, Biochrom K G) and antibiotic (1% penicillin streptomycin, Difco Lab, Detroit, Mich., USA).\nAlso, all the mitogens were optimised in a dose response way in order to obtaining the maximum proliferative response after 5 days of culture.\nVenous blood: The CMSP were obtained from venous blood extracted by antecubital venous puncture. 50 ml of blood were extracted to which were added 50 U of calcic heparin and the mixture was diluted 1/1 (vol/vol) with PSS.\nHuman mononucleated cells: In order to isolate the CMSP they were proceeded to be separated from the rest of the blood components by means of the formation of a density gradient on Ficoll. The cells thus obtained are resuspended in PSS and centrifuged at 400×g for 10 minutes (washing process) and then resuspended in PSS. This operation is repeated three times. In the last of them, PSS is replaced with complete medium.\nGeneral culture conditions: All cell cultures were developed under conditions of sterility in a vertical laminar flow chamber, using single-use sterile materials or materials sterilised in an autoclave or with ethylene oxide. The cultures were conserved in a stove kept at a temperature of 37° C., in an atmosphere with 5% CO2 and relative humidity of 95%. In the various experiments performed, the purified CMSP cell preparations were incubated in sterile dishes with 96 wells at concentrations of 5×10^4 cells/well (200 μl) in the presence of different concentrations of different mitogens for 5 days.\nThe method used for quantifying the cell proliferation was analysis of the incorporation of ^3H-thymidine (^3H-T) into DNA synthesised de novo, detecting the emission of β radiation from the dry extracts of cell cultures to which the tritiated base had been added before its finalisation and collection. The synthesis of DNA was done in triplicate on sterile dishes with 96 flat-bottom wells.\nFrom 20 to 24 hour prior to terminating the cell culture, 1 μCi of ^3H-T was added to each well containing medium; the cultures were gathered by suction through a glass filter, using a Skatron culture collector for this.\nThe synthesis of DNA has been expressed in counts per minute (cpm). Each test was conducted in triplicate, with those data having a variability greater than 10% compared to the mean of the triplicate being rejected, since they could indicate a technical error or contamination in the culture. The cultures were carried out at a constant cell volume per well, as well as at a constant volume of 200 μl.\nNegative Control: Cells in the Presence of Complete Culture Medium\nPositive Control: Stimulation of Cells without the Presence of Lactone […]",
  "data": [
    {"smiles": "C=C1C(=O)OC(CCc2ccc(OC)cc2)C1C", "note": "(stereo not drawn) [lactone]", "values": [
      {"measurement": "Proliferation of human peripheral blood mononuclear cells, Con A 2 μg/ml (cpm ± DS)", "setting": "Lactone 10 μg/ml", "result": "48 ± 7", "unit": "cpm"},
      {"measurement": "Proliferation of human peripheral blood mononuclear cells, Medium (cpm ± DS)", "setting": "Lactone 10 μg/ml", "result": "72 ± 72", "unit": "cpm"},
      {"measurement": "Proliferation of human peripheral blood mononuclear cells, PHA 10 μg/ml (cpm ± DS)", "setting": "Lactone 10 μg/ml", "result": "71 ± 14", "unit": "cpm"},
      {"measurement": "Proliferation of human peripheral blood mononuclear cells, aCD3 5 μg/ml (cpm ± DS)", "setting": "Lactone 10 μg/ml", "result": "119 ± 7", "unit": "cpm"},
      {"measurement": "Proliferation of human peripheral blood mononuclear cells, aCD3 + Con A (cpm ± DS)", "setting": "Lactone 10 μg/ml", "result": "11 ± 1", "unit": "cpm"},
      {"measurement": "Proliferation of human peripheral blood mononuclear cells, aCD3 + PHA (cpm ± DS)", "setting": "Lactone 10 μg/ml", "result": "23 ± 7", "unit": "cpm"},
      {"measurement": "Proliferation of human peripheral blood mononuclear cells in the presence of rhIL-2, Con A 2 μg/ml (cpm ± DS)", "setting": "Lactone 10 μg/ml", "result": "611 ± 75", "unit": "cpm"},
      {"measurement": "Proliferation of human peripheral blood mononuclear cells in the presence of rhIL-2, Medium (cpm ± DS)", "setting": "Lactone 10 μg/ml", "result": "866 ± 66", "unit": "cpm"},
      {"measurement": "Proliferation of human peripheral blood mononuclear cells in the presence of rhIL-2, PHA 10 μg/ml (cpm ± DS)", "setting": "Lactone 10 μg/ml", "result": "579 ± 1033", "unit": "cpm"},
      {"measurement": "Proliferation of human peripheral blood mononuclear cells in the presence of rhIL-2, aCD3 5 μg/ml (cpm ± DS)", "setting": "Lactone 10 μg/ml", "result": "489 ± 25", "unit": "cpm"},
      {"measurement": "Proliferation of human peripheral blood mononuclear cells in the presence of rhIL-2, aCD3 + Con A (cpm ± DS)", "setting": "Lactone 10 μg/ml", "result": "164 ± 65", "unit": "cpm"},
      {"measurement": "Proliferation of human peripheral blood mononuclear cells in the presence of rhIL-2, aCD3 + PHA (cpm ± DS)", "setting": "Lactone 10 μg/ml", "result": "304 ± 35", "unit": "cpm"},
      {"measurement": "Proliferation of human peripheral blood mononuclear cells, Con A 2 μg/ml (cpm ± DS)", "setting": "Lactone 100 μg/ml", "result": "204 ± 43", "unit": "cpm"},
      {"measurement": "Proliferation of human peripheral blood mononuclear cells, Medium (cpm ± DS)", "setting": "Lactone 100 μg/ml", "result": "104 ± 26", "unit": "cpm"},
      {"measurement": "Proliferation of human peripheral blood mononuclear cells, PHA 10 μg/ml (cpm ± DS)", "setting": "Lactone 100 μg/ml", "result": "1086 ± 308", "unit": "cpm"},
      {"measurement": "Proliferation of human peripheral blood mononuclear cells, aCD3 5 μg/ml (cpm ± DS)", "setting": "Lactone 100 μg/ml", "result": "39 ± 10", "unit": "cpm"},
      {"measurement": "Proliferation of human peripheral blood mononuclear cells, aCD3 + Con A (cpm ± DS)", "setting": "Lactone 100 μg/ml", "result": "8 ± 6", "unit": "cpm"},
      {"measurement": "Proliferation of human peripheral blood mononuclear cells, aCD3 + PHA (cpm ± DS)", "setting": "Lactone 100 μg/ml", "result": "13 ± 4", "unit": "cpm"},
      {"measurement": "Proliferation of human peripheral blood mononuclear cells in the presence of rhIL-2, Con A 2 μg/ml (cpm ± DS)", "setting": "Lactone 100 μg/ml", "result": "532 ± 109", "unit": "cpm"},
      {"measurement": "Proliferation of human peripheral blood mononuclear cells in the presence of rhIL-2, Medium (cpm ± DS)", "setting": "Lactone 100 μg/ml", "result": "918 ± 1", "unit": "cpm"},
      {"measurement": "Proliferation of human peripheral blood mononuclear cells in the presence of rhIL-2, PHA 10 μg/ml (cpm ± DS)", "setting": "Lactone 100 μg/ml", "result": "892 ± 199", "unit": "cpm"},
      {"measurement": "Proliferation of human peripheral blood mononuclear cells in the presence of rhIL-2, aCD3 5 μg/ml (cpm ± DS)", "setting": "Lactone 100 μg/ml", "result": "400 ± 44", "unit": "cpm"},
      {"measurement": "Proliferation of human peripheral blood mononuclear cells in the presence of rhIL-2, aCD3 + Con A (cpm ± DS)", "setting": "Lactone 100 μg/ml", "result": "237 ± 109", "unit": "cpm"},
      {"measurement": "Proliferation of human peripheral blood mononuclear cells in the presence of rhIL-2, aCD3 + PHA (cpm ± DS)", "setting": "Lactone 100 μg/ml", "result": "286 ± 10", "unit": "cpm"},
      {"measurement": "Lactone concentration at which the blastogen response induced in CMSP falls by 50%", "setting": "induced by Con A+rhIL-2", "result": 0.27, "unit": "µg/mL"},
      {"measurement": "Lactone concentration at which the blastogen response induced in CMSP falls by 50%", "setting": "induced by Concavalin A (Con A)", "result": 0.5, "unit": "µg/mL"},
      {"measurement": "Lactone concentration at which the blastogen response induced in CMSP falls by 50%", "setting": "induced by PHA+rhIL-2", "result": 0.29, "unit": "µg/mL"},
      {"measurement": "Lactone concentration at which the blastogen response induced in CMSP falls by 50%", "setting": "induced by aCD3+Con A", "result": 0.21, "unit": "µg/mL"},
      {"measurement": "Lactone concentration at which the blastogen response induced in CMSP falls by 50%", "setting": "induced by aCD3+PHA", "result": 0.24, "unit": "µg/mL"},
      {"measurement": "Lactone concentration at which the blastogen response induced in CMSP falls by 50%", "setting": "induced by immobilised aCD3+Con A+rhIL-2", "result": 0.25, "unit": "µg/mL"},
      {"measurement": "Lactone concentration at which the blastogen response induced in CMSP falls by 50%", "setting": "induced by immobilised aCD3+PHA+rhIL-2", "result": 0.26, "unit": "µg/mL"},
      {"measurement": "Lactone concentration at which the blastogen response induced in CMSP falls by 50%", "setting": "induced by immobilised aCD3+rhIL-2", "result": 0.24, "unit": "µg/mL"},
      {"measurement": "Lactone concentration at which the blastogen response induced in CMSP falls by 50%", "setting": "induced by immobilised anti-CD3 (aCD3)", "result": 0.06, "unit": "µg/mL"},
      {"measurement": "Lactone concentration at which the blastogen response induced in CMSP falls by 50%", "setting": "induced by phytohaemaglutinin M (PHA)", "result": 0.25, "unit": "µg/mL"},
      {"measurement": "Lactone concentration at which the blastogen response induced in CMSP falls by 50%", "setting": "induced by rhIL-2", "result": 0.26, "unit": "µg/mL"},
      {"measurement": "Lactone concentration at which the spontaneous blastogen response of the CMSP falls by 50%", "setting": "no mitogen", "result": 0.66, "unit": "µg/mL"}
    ]}
  ]
}
